Source: US6096771A, “Isoxazole derivatives” (Sankyo Company, Limited, priority 1994, dated 2000)
Counter-ions that a name gives are not always drawn.

Legend:
B-type monoamine oxidase = target: T1, B-type monoamine oxidase (Mus musculus, UniProt Q8BW75); assay: Monoamine oxidase-inhibitory activity, B-type (crude mitochondria of mouse brain, 14C-2-phenylethylamine substrate); type: biochemical; conditions: 14C-PEA 20 μM, pH 7.4, 38° C.
T1 sequence (Q8BW75 1-520): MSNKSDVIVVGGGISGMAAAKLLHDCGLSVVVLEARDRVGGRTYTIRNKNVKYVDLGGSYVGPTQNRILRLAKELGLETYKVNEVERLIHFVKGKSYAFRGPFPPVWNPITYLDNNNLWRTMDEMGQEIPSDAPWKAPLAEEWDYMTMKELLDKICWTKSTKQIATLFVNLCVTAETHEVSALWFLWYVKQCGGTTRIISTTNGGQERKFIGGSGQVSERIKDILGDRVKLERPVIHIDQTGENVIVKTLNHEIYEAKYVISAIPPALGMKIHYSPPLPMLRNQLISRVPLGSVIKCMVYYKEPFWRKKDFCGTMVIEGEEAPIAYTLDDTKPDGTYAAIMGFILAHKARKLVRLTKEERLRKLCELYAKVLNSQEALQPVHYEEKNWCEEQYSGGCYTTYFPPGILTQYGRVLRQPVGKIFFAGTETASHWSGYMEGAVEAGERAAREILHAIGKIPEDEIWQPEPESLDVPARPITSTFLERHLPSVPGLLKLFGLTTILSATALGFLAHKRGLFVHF

[1] = Farmaco, Ed. Sci., 23, 1081 (1968); 24, 440 (1969); cited from earlier work
[2] = Farmaco, Ed. Sci., 23, 1081 (1968); 24, 440 (1969); cited from earlier work; remark: listed apart in the source

Structure (SMILES) | IC50 (B-type monoamine oxidase; 20 min preincubation) [nM] | further results
NCCOc1noc2ncccc12 [10(e), 3-(2-Aminoethoxy)pyrido[3,2-d]isoxazole Dihydrochloride] | 10.2 | –
NCCOc1noc2ncccc12 [10(f), 3-(2-Aminoethoxy)pyrido[3,2-d]isoxazole Hydrochloride] | 13.5 | –
CNCCOc1noc2ccccc12 [Compound A, 3(2-N-Methylamino)ethoxy-1,2-benzisoxazole, reference compound] | – | IC50 (B-type monoamine oxidase; reference compounds A and B): 2350 nM
CN(C)CCOc1noc2ccccc12 [Compound B, 3(2-N,NDimethylamino)ethoxy-1,2-benzisoxazole] | – | local (infiltration) anaesthetic effect [1]: local (infiltration) anaesthetic effect; anti-inflammatory effects [2]: possesses anti-inflammatory effects; IC50 (B-type monoamine oxidase; reference compounds A and B): 4700 nM
NCCOc1noc2ccc(Cl)cc12 [Example 1, 3-(2-Aminoethoxy)-5-chloro-1,2-benzisoxazole hydrochloride] | 0.37 | –
NCCOc1noc2ccccc12 [Example 2, 3-(2-Aminoethoxy)-1,2-benzisoxazole hydrochloride] | 1.85 | –
NCCOc1noc2ccc(F)cc12 [Example 5, 3-(2-Aminoethoxy)-5-fluoro-1,2-benzisoxazole hydrochloride] | 1.35 | –
COc1ccc2onc(OCCN)c2c1 [Example 6, 3-(2-Aminoethoxy)-5-methoxy-1,2-benzisoxazole hydrochloride] | 5.6 | –
Cc1ccc2onc(OCCN)c2c1 [Example 7, 3-(2-Aminoethoxy)-5-methyl-1,2-benzisoxazole Hydrochloride] | 0.56 | –
NCCOc1noc2ccc([N+](=O)[O-])cc12 [Example 8, 3-(2-Aminoethoxy)-5-nitro-1,2-benzisoxazole Hydrochloride] | 0.56 | –
NCCOc1noc2c(Cl)cccc12 [Example 9, 3-(2-Aminoethoxy)-7-chloro-1,2-benzisoxazole Hydrochloride] | 20 | –
NCCOc1noc2cc(Cl)ccc12 [Example 11, 3-(2-Aminoethoxy)-6-chloro-1,2-benzisoxazole Hydrochloride] | 2.8 | –
NCCOc1noc2c(Cl)cc(Cl)cc12 [Example 12, 3-(2-Aminoethoxy)-5,7-dichloro-1,2-benzisoxazole Hydrochloride] | 26.5 | –
Cc1cccc2c(OCCN)noc12 [Example 13, 3-(2-Aminoethoxy)-7-methyl-1,2-benzisoxazole Hydrochloride] | 27.5 | –
Cc1ccc2c(OCCN)noc2c1 [Example 14, 3-(2-Aminoethoxy)-6-methyl-1,2-benzisoxazole Hydrochloride] | 21.5 | –
NCCOc1noc2ccc(Br)cc12 [Example 15, 3-(2-Aminoethoxy)-5-bromo-1,2-benzisoxazole Hydrochloride] | 0.32 | –
Cc1c(F)ccc2onc(OCCN)c12 [Example 17, 3-(2-Aminoethoxy)-5-fluoro-4-methyl-1,2-benzisoxazole Hydrochloride] | 4.2 | –
CSc1c(F)ccc2onc(OCCN)c12 [Example 21, 3-(2-Aminoethoxy)-5-fluoro-4-methylthio-1,2-benzisoxazole Hydrochloride] | 4.7 | –
N#Cc1cccc2onc(OCCN)c12 [Example 24, 3-(2-Aminoethoxy)-4-cyano-1,2-benzisoxazole hydrochloride] | 6.8 | –
NCCSc1noc2ccc(F)cc12 [Example 26, 3-(2-Aminoethylthio)-5-fluoro-1,2-benzisoxazole hydrochloride] | 2.7 | –
COc1ccc2onc(SCCN)c2c1 [Example 33, 3-(2-Aminoethylthio)-5-methoxy-1,2-benzisoxazole hydrochloride] | 4.5 | –
Cc1ccc2onc(SCCN)c2c1 [Example 34, 3-(2-Aminoethylthio)-5-methyl-1,2-benzisoxazole hydrochloride] | 2.2 | –
NCCSc1noc2ccc([N+](=O)[O-])cc12 [Example 35, 3-(2-Aminoethylthio)-5-nitro-1,2-benzisoxazole hydrochloride] | 9 | –
NCCSc1noc2ccc(Cl)cc12 [Example 38, 3-(2-Aminoethylthio)-5-chloro-1,2-benzisoxazole hydrochloride] | 2.95 | –
COC(=O)c1ccc2onc(OCCN)c2c1 [Example 42, 3-(2-Aminoethoxy)-5-methoxycarbonyl-1,2-benzisoxazole hydrochloride] | 18 | –
NCCOc1noc2ccc(OC(F)F)cc12 [Example 44, 3-(2-Aminoethoxy)-5-difluoromethoxy-1,2-benzisoxazole hydrochloride] | 6 | –
Cc1cc(Cl)cc2c(SCCN)noc12 [Example 56, 3-(2-Aminoethylthio)-5-chloro-7-methyl-1,2-benzisoxazole hydrochloride] | 6.6 | –
